{"source": "patent US20220088017A1", "about": "“COMPOSITIONS AND METHODS FOR TREATING VIRAL INFECTIONS” (priority 2020, published 2022)", "system": "coronavirus (COVID-19)", "experiment": "Observational case: older coronavirus contact with impending right heart failure treated with statin", "format": "in vivo", "details": "person", "source_text": "An older person developed signs and symptoms of vascular inflammation and right heart failure. This included occasional headaches, flashes in vision, general fatigue, irritability, muscle pains, epigastric pain, general abdominal distention, inability to eat and circulatory congestion, salty or blood taste in sputum. […] The impending right heart failure was thought to be secondary to myocarditis, circulatory congestion due to poor blood flow as a result of vascular inflammation and sticky walls of blood vessels. The contact was within 6 hours having intermittent chest pains, sweating, and dizziness. Cardiac arrest was thought to be a possible poor outcome leading to mortality. The medical team discussed interventions necessary with statins, with the intention of reducing blood sticking to blood vessels. […] The patient commenced treatment immediately with good results in 3 days' time. The abdominal swelling which was A sign of right heart failure subsided, abdominal pain reduced and the patient was able to eat with circulatory congestion eased.", "key": {"[1]": {"details": "20 mg daily, with OMEGA 3 based vitamin oil"}}}
{"smiles": "CC(C)c1nc(N(C)S(C)(=O)=O)nc(-c2ccc(F)cc2)c1/C=C/[C@@H](O)C[C@@H](O)CC(=O)O", "note": "[rosuvastatin]", "values": [{"measurement": "right heart failure outcome", "setting": "coronavirus contact, 20 mg daily for two weeks, concomitantly with OMEGA 3 based vitamin oil daily", "result": "prevented this patient from going into right heart failure"}, {"measurement": "circulation", "setting": "coronavirus contact, 20 mg daily for two weeks, with OMEGA 3 based vitamin oil", "result": "restored circulation"}, {"measurement": "abdominal swelling (sign of right heart failure)", "setting": "[1]", "result": "subsided"}, {"measurement": "time to good results after start of treatment", "setting": "[1]", "result": 3, "unit": "days"}]}
